Experimental findings from the supplement of paper PMC11208160 are described below.
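Further: IS621 bridge recombinase in Escherichia coli cells against a fixed T5 target plasmid.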

The data set in a line: recombinant UMI read abundance after kanamycin selection (control-corrected) (log10(CPM+1)); higher = more efficient recombination; extreme values may be limits of the assay; sequences stand for … in AGTGCAGAGAAAATCGGCCAGTTTTCTCTGCCTGCAGTCCGCATGCCGTGGGACCCCTTGGGTTCTAACCTGTTGCCTAGATTTATGCAGCGGACTGCCTTTCTCCCAAAGTGATAAACCGG…AGGTTGGTTTCACT; site = the 11-nt donor. In short, it runs like this: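 In a pooled Escherichia coli screen for the IS621 bridge recombinase, donor and donor-binding-loop pairs were each placed with a 12-nt UMI on a plasmid bearing a promoterless kanamycin gene. This library was co-electroporated with a target plasmid encoding a fixed target and T7-inducible recombinase, and cells were plated either on IPTG (0.07 mM) plus kanamycin or without selection, in two replicates each. Recombinant UMIs were PCR-amplified across the donor–target junction and sequenced, and counts were converted to CPM, averaged over replicates, scaled by control-derived factors and reported as log10(CPM+1).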
As for “CTCCCTACATGGACCGGTTTTCCCGGTAATCCGTATTTGGG (site CTCCCTACTCA)”, the “recombinant UMI read abundance (log10)” value was determined as 0.037. Turning to “CTCCCTACATGGACCGGTTTTCCCGGTAATCCGTATTTGGG (site CTCCCTACTCC)”, the “recombinant UMI read abundance (log10)” value stood at 0.0177. Next, “CTCCCTACATGGACCGGTTTTCCCGGTAATCCGTATTTGGG (site CTCCCTACTCG)”: 0.00544; “CTCCCTACATGGACCGGTTTTCCCGGTAATCCGTATTTGGG (site CTCCCTACTCT)”: 0.0127; “CTCCCTGCATGGACCGGTTTTCCCGGTAATCCGTATTTGGC (site CTCCCTGCTGC)”: 0. Regarding “CTCCGACCATGGACCGGTTTTCCCGGTAATCCGTATTTGAC (site CTCCGACCTGT)”, the “recombinant UMI read abundance (log10)” value turned out to be 0.

Regarding “CTCCTACCATGGACCGGTTTTCCCGGTAATCCGTATTTGCT (site CTACTACCTAG)”, the “recombinant UMI read abundance (log10)” value was 0.

Consider “CTCCTACCATGGACCGGTTTTCCCGGTAATCCGTATTTGCT (site CTCCTACCTAG)”, for which the “recombinant UMI read abundance (log10)” value came to 0.

“CTCCTACCATGGACCGGTTTTCCCGGTAATCCGTATTTGCT (site CTGCTACCTAG)”: the “recombinant UMI read abundance (log10)” value worked out at 0.00362. For “CTCCTACCATGGACCGGTTTTCCCGGTAATCCGTATTTGCT (site CTTCTACCTAG)”, the “recombinant UMI read abundance (log10)” value amounted to 0. For the sequence “CTCGAAACATGGACCGGTTTTCCCGGTAATCCGTATTTGTG (site CTCGAAACTCA)”, the “recombinant UMI read abundance (log10)” value came to 1.06. On to “CTCGAATCATGGACCGGTTTTCCCGGTAATCCGTATTTGCA (site CTCGAATCTTG)”, for which the “recombinant UMI read abundance (log10)” value was 2.42.

For “CTCGACACATGGACCGGTTTTCCCGGTAATCCGTATTTGGC (site CTCGACACTGC)”, the “recombinant UMI read abundance (log10)” value is 1.04. Next, “CTCGCAACATGGACCGGTTTTCCCGGTAATCCGTATTTGTT (site CTCGCAACTAA)”: 1.96; “CTCGGAGCATGGACCGGTTTTCCCGGTAATCCGTATTTGAC (site CTCGGAGCTGT)”: 2.63; “CTCGTAACATGGACCGGTTTTCCCGGTAATCCGTATTTGAT (site CTCGTAACTAT)”: 2.31. Turning to “CTCGTATCATGGACCGGTTTTCCCGGTAATCCGTATTTGAG (site CTAGTATCTGT)”, the “recombinant UMI read abundance (log10)” value was 0. Next, “CTCGTATCATGGACCGGTTTTCCCGGTAATCCGTATTTGAG (site CTCGTATCTCT)”: 1.9; “CTCTAAGCATGGACCGGTTTTCCCGGTAATCCGTATTTGTC (site CTCTAAGCTGA)”: 1.81; “CTCTACACATGGACCGGTTTTCCCGGTAATCCGTATTTGAT (site CTCTACACTAA)”: 0.0183.

Turning to “CTCTACACATGGACCGGTTTTCCCGGTAATCCGTATTTGAT (site CTCTACACTAC)”, the “recombinant UMI read abundance (log10)” value was determined as 0.0649. On to “CTCTACACATGGACCGGTTTTCCCGGTAATCCGTATTTGAT (site CTCTACACTAG)”, for which the “recombinant UMI read abundance (log10)” value was 0.00358.

On to “CTCTACACATGGACCGGTTTTCCCGGTAATCCGTATTTGAT (site CTCTACACTAT)”, for which the “recombinant UMI read abundance (log10)” value was 2.19. Next, “CTCTACACATGGACCGGTTTTCCCGGTAATCCGTATTTGCC (site CTCTACACTAG)”: 0.72; “CTCTACACATGGACCGGTTTTCCCGGTAATCCGTATTTGCC (site CTCTACACTCG)”: 0.0134; “CTCTACACATGGACCGGTTTTCCCGGTAATCCGTATTTGCC (site CTCTACACTGG)”: 2.37.

With “CTCTACACATGGACCGGTTTTCCCGGTAATCCGTATTTGCC (site CTCTACACTTG)”, the “recombinant UMI read abundance (log10)” value was found to be 2.13. Next, “CTCTACCCATGGACCGGTTTTCCCGGTAATCCGTATTTGCT (site CTCTACACTAG)”: 0.274; “CTCTACCCATGGACCGGTTTTCCCGGTAATCCGTATTTGCT (site CTCTACCCTAG)”: 1.74. Next, “CTCTACCCATGGACCGGTTTTCCCGGTAATCCGTATTTGCT (site CTCTACGCTAG)”: 0.00357; “CTCTACCCATGGACCGGTTTTCCCGGTAATCCGTATTTGCT (site CTCTACTCTAG)”: 2.87. Next, “CTCTAGACATGGACCGGTTTTCCCGGTAATCCGTATTTGCT (site CTCTAAACTAG)”: 0.681; “CTCTAGACATGGACCGGTTTTCCCGGTAATCCGTATTTGCT (site CTCTACACTAG)”: 0.119; “CTCTAGACATGGACCGGTTTTCCCGGTAATCCGTATTTGCT (site CTCTAGACTAG)”: 0.576. For “CTCTAGACATGGACCGGTTTTCCCGGTAATCCGTATTTGCT (site CTCTATACTAG)”, the “recombinant UMI read abundance (log10)” value amounted to 0. Next, “CTCTCCACATGGACCGGTTTTCCCGGTAATCCGTATTTGCT (site CTCTACACTAG)”: 0.902. Next, “CTCTCCACATGGACCGGTTTTCCCGGTAATCCGTATTTGCT (site CTCTCCACTAG)”: 2.34; “CTCTCCACATGGACCGGTTTTCCCGGTAATCCGTATTTGCT (site CTCTGCACTAG)”: 0. Next, “CTCTCCACATGGACCGGTTTTCCCGGTAATCCGTATTTGCT (site CTCTTCACTAG)”: 0.534.

Consider “CTCTGCACATGGACCGGTTTTCCCGGTAATCCGTATTTGCT (site CTCTACACTAG)”, for which the “recombinant UMI read abundance (log10)” value came to 0.861. Next, “CTCTGCACATGGACCGGTTTTCCCGGTAATCCGTATTTGCT (site CTCTCCACTAG)”: 0.00325; “CTCTGCACATGGACCGGTTTTCCCGGTAATCCGTATTTGCT (site CTCTGCACTAG)”: 2.1; “CTCTGCACATGGACCGGTTTTCCCGGTAATCCGTATTTGCT (site CTCTTCACTAG)”: 0.00616. Next, “CTCTTCTCATGGACCGGTTTTCCCGGTAATCCGTATTTGTA (site CTCTTCTCTTA)”: 2.1. Next, “CTGACTCCATGGACCGGTTTTCCCGGTAATCCGTATTTGGG (site CTGACTCCTCC)”: 0.44; “CTGCAAACATGGACCGGTTTTCCCGGTAATCCGTATTTGCA (site CTGAAAACTTG)”: 0; “CTGCAAACATGGACCGGTTTTCCCGGTAATCCGTATTTGCA (site CTGCAAACTTG)”: 0.915. For “CTGCAAACATGGACCGGTTTTCCCGGTAATCCGTATTTGCA (site CTGGAAACTTG)”, the “recombinant UMI read abundance (log10)” value turned out to be 0. With “CTGCAAACATGGACCGGTTTTCCCGGTAATCCGTATTTGCA (site CTGTAAACTTG)”, the “recombinant UMI read abundance (log10)” value worked out at 0. Next, “CTGCACCCATGGACCGGTTTTCCCGGTAATCCGTATTTGGC (site CTGCACCCTGC)”: 0.469; “CTGCAGGCATGGACCGGTTTTCCCGGTAATCCGTATTTGAG (site CTGCAGGCTCT)”: 1.5; “CTGCATGCATGGACCGGTTTTCCCGGTAATCCGTATTTGGT (site ATGCATGCTAC)”: 0.0144.
